Patent US10441568B2, “Nitroxide radicals for the treatment of diseases of the respiratory tract” (priority 2015, dated 2019)

How the values were obtained:
Water-solubility = details: compared with 3-CP, data not shown
[1] = tested on: ovalbumin-induced murine model of asthma; assay: Inflammatory cell counts in BAL fluid in OVA asthma model; format: in vivo, BALB/c mice
Method: (§1) All experimental procedures were carried out in accordance with the NIH Guidelines for the Care and Use of Laboratory Animals. Specific pathogen-free (SPF) male BALB/c mice (6-7 weeks of age, 18-22 grams), routinely screened serologically for relevant respiratory pathogens, were maintained in an animal housing facility for 1 week before use and given access to food and water ad libitum. Animals were randomly assigned to the indicated experimental groups, and sensitized with two intraperitoneal (IP) injections (20 μg ovalbumin (OVA) emulsified in 2 mg aluminum hydroxide (an adjuvant) in 200 μl phosphate buffer saline (PBS), pH 7.4), on days 1 and 10.
(§2) After another week, the animals were challenged by exposure to ovalbumin (OVA) aerosol (1%, w/v, in PBS) for 30 minutes each day on days 17, 18 and 19, in order to elicit an inflammatory reaction in the lungs characterized by airway hyper-responsiveness (AHR), an influx of inflammatory cells (particularly eosinophils), and increased pulmonary levels of various cytokines and transforming growth factors, protein nitration and lipid peroxidation.
(§3) The features of allergic inflammation typically reached their peak a day or two after the final exposure. Mice were then subjected to one of the following treatments: (i) sham-sensitization plus challenge with PBS; (ii) positive control-sensitization plus challenge with OVA; (iii) sensitization plus challenge with OVA and various indicated treatments (e.g., with nitroxide or dexamethasone), including different modes (oral, IP, intranasal, inhalation), time windows (sensitization stage, challenge stage, both stages and after the last challenge), and doses of nitroxide administration.
(§4) Bronchoalveolar lavage (BAL) fluid (also referred to herein as “BALf”) and bronchial submucosal inflammation are characteristic features of asthma. Mice were euthanized with an overdose of 50 mg/kg pentobarbital and ice-cold phosphate buffer saline (PBS) (0.6 ml) was instilled into the lungs. BAL fluid was obtained by three aspirations via tracheal cannulation, centrifuged, and the supernatant collected and stored at −70° C. Cell pellets were re-suspended in PBS and 100 μl aliquots placed onto slides and centrifuged (200 g, 4° C., 10 minutes) in a cytospin machine. Induction of oxidative stress was evaluated using a 2′,7′-dichlorofluorescein fluorescence assay, and total IgE, IgG2a, panel of cytokines, transforming growth factors, collagen, protein nitration and lipid peroxidation were measured using commercial kits according to the manufacturer's recommendations. A Sircol™ collagen assay kit was obtained from Biocolor Life Sciences Assays, a protein nitration assay kit was obtained from Abcam, and other assay kits were obtained from PeproTech Asia.
(§5) Control and experimental groups contained 10 mice each. The effects of the nitroxides were investigated by feeding the mice ad libitum a diet of nitroxide-containing chow (1 weight percent) during both ovalbumin (OVA)-induced sensitization and challenging periods (days −2-19), during the sensitization period (days −2-11) or challenge period (days 13-19). Nitroxide-containing chow were prepared by dissolving 500 grams chow in a minimum volume of water containing 5 grams nitroxide and 5 grams commercial chicken soup powder, preparing the chow and drying it at 37° C. (animals were reluctant to eat nitroxide-containing chow until chicken soup powder was added).
3-CP was also administered using 3 daily intraperitoneal (IP) injections (200 μl, 0.15 M, ˜300 mg/kg) 0.5 hour prior to the challenge with OVA aerosol, or by nasal instillation (50 μl, 0.3 M, ˜150 mg/kg) twice a day 0.5 hour prior to the challenge with OVA aerosol and 6 hours later without exceeding its maximally tolerated dose, which has been previously established to be 300-500 mg/kg. Both 3-CP and TPL were non-toxic when administered orally or via IP injection to untreated OVA-challenged mice for 22 days. […]

[2] = Nitroxide concentration measurement by EPR in mouse blood and tissue; format: in vivo; details: mice fed chow with 0.7 weight percent 3-CPT, FIG. 12
[3] = tested on: ovalbumin-induced murine model of asthma; assay: Lung resistance / airway hyper-responsiveness to methacholine in OVA asthma model; format: in vivo, BALB/c mice; details: oral
Method: as §1, §2, §3
One day after the final challenge, respiratory activity and airway hyper-responsiveness (AHR) of experimental animals were evaluated. Whole body plethysmographs for enhanced pause (Penh) measurements are often used for assessment of AHR. However, critics have questioned the validity of Penh measurements, which supposedly measure airway obstruction of live non-sedated mice, stating that it is likely to measure the distress of the animal rather than actual obstruction. […] In brief, mice were sedated with an intraperitoneal (IP) injection of xylazine hydrochloride and anaesthetized with IP injection of pentobarbital. Subsequently, the animals were tracheostomized using an 18 gauge cannula, ventilated with a FlexiVent™ apparatus (SCIREQ), and muscle paralysis was induced with pancuronium bromide. The mice were ventilated in a quasi-sinusoidal fashion with the following settings: a tidal volume of 10 ml/kg, maximum inflation pressure of […] (30 cm H2O), a positive end expiratory pressure (PEEP) of 3 millibar and a frequency of 150 per minute. Following an equilibration period of 3 minutes of tidal ventilation, two lung inflations to a transrespiratory pressure of 2.5 millibar were performed and baseline measurements were taken. Airway hyper-responsiveness (AHR) was determined by aerosolizing increasing concentrations of methacholine. After baseline determination of airway resistance, mice were challenged with 0 to 64 mg/mL methacholine nebulized directly into the ventilatory circuit using an AeroNeb™ Lab nebulizer system (SCIREQ). Two models of respiratory mechanics were used to assess lung resistance: a linear 1st-order single compartment model and a constant-phase model. All data points were collected with FlexiVent™ software (SCIREQ). […]

IL-13 = IL-13 level in OVA asthma model; format: in vivo, BALB/c mice; details: OVA IP-Dex: dexamethasone intraperitoneal (1 mg/kg); lung tissue (table title)
Method: as §1, §2, §4
The efficacy of oral administration of 3-CP (1 weight percent in chow) during the sensitization period and/or challenge period was then compared to IP injection (˜300 mg/kg, 0.5 hour before the OVA challenge) or intranasal instillation (˜150 mg/kg, 0.5 hour before the OVA and 6 hours later) of 3-CP, as well as to dexamethasone treatment (1 mg/kg, 3 daily IP injections, 0.5 hour prior to the challenge with OVA aerosol).
In order to assess the effect of 3-CP on inflammatory signaling pathways, […] to procedures described hereinabove, upon oral, intranasal or IP administration of 3-CP.

[4] = Toxicity / maximally tolerated dose in mice; format: in vivo; details: administered orally or via IP injection to untreated OVA-challenged mice for 22 days
Method: (§6) 3-CP was also administered using 3 daily intraperitoneal (IP) injections (200 μl, 0.15 M, ˜300 mg/kg) 0.5 hour prior to the challenge with OVA aerosol, or by nasal instillation (50 μl, 0.3 M, ˜150 mg/kg) twice a day 0.5 hour prior to the challenge with OVA aerosol and 6 hours later without exceeding its maximally tolerated dose, which has been previously established to be 300-500 mg/kg. Both 3-CP and TPL were non-toxic when administered orally or via IP injection to untreated OVA-challenged mice for 22 days.

[5] = Nitroxide concentration measurement by EPR in mouse blood and tissue; format: in vivo; details: mice
Method: Electron paramagnetic resonance (EPR) spectroscopy was used to determine residual levels of nitroxide in mouse tissue. Blood samples or tissue samples were diluted with 0.5 ml phosphate buffer (40 mM, pH 7.4) or water, inserted into a flexible capillary placed in a quartz tube installed within the EPR spectrometer cavity and assayed for residual nitroxide. A similar procedure was used to determine the residual nitroxide in tissue homogenates of various organs, which were corrected for blood contamination spectrophotometrically by following the absorption of oxyhemoglobin at 400-600 nm. Measured EPR signals were compared to those of a nitroxide standard solution.
In order to determine total hydroxylamine and nitroxide concentrations, 2 mM K3Fe(CN)6 was added to samples in order to oxidize hydroxylamines to the respective nitroxide, and the nitroxide level was determined by EPR spectroscopy as described hereinabove.
as §5, §6

With CC1(C)C=C(C(N)=O)C(C)(C)N1[O] [3-CPT, 3-carbamoyl-2,2,5,5-tetramethyl-3-pyrrolin-1-oxyl] the water-solubility (Water-solubility) was “lower water-solubility than 3-CP”, the “inhibiting increases in inflammatory cell levels (especially eosinophil levels) in asthmatic animals” value ([1]; 3-CPT oral (0.7 weight percent in chow) or intraperitoneal (300 mg/kg), FIG. 13) was “effective” and the “effect on OVA-induced increase of total cell counts in BAL fluid” value ([1]; oral, 0.7 weight percent 3-CPT in chow, FIG. 13) was “effective in reversing OVA-induced increase of total cell counts”. The “reduction to the respective hydroxylamine in the blood” value [2] was “most of the 3-CPT in the blood was reduced to the respective hydroxylamine” and the “effect on methacholine-induced lung resistance” value ([3]; 0.7 weight percent 3-CPT in chow, FIG. 14) was “reduced methacholine-induced lung resistance, albeit to a considerably lesser degree than 3-CP”.

For C[C@@H]1C[C@H]2[C@@H]3CCC4=CC(=O)C=C[C@]4(C)[C@@]3(F)[C@@H](O)C[C@]2(C)[C@@]1(O)C(=O)CO [dexamethasone, Dexamethasone, reference compound], the IL-13 level (IL-13) was 1.80 ng/mg.

In the case of CC1(C)CC(O)CC(C)(C)N1[O] [TPL, 4-Hydroxy-2,2,6,6-tetramethyl-piperidin-1-oxyl, reference compound], the toxicity [4] was “non-toxic”, the “residual concentration of the respective hydroxylamine compared with the nitroxide” value ([5]; data not shown) was “higher than those of the therapeutically active nitroxide free radical” and the “residual concentration of nitroxide in blood” value ([5]; oral administration (1 weight percent nitroxide in chow), FIG. 1) was “detectable levels”. For the same compound, the “effect on OVA-induced increase in total inflammatory cell and eosinophil counts in BAL fluid” value ([1]; oral, 1 weight percent in chow, FIG. 4) was “attenuated the increase in total inflammatory cell counts and eosinophil counts” and the “effect on methacholine-induced increase in lung resistance” value ([3]; 1 weight percent in chow, FIG. 3) was “suppressed methacholine-induced increase in lung resistance”.
